Measured values as given in article PMC5469273, “Discovery of Novel Small-Molecule Inhibitors of LIM Domain Kinase for Inhibiting HIV-1” (Journal of Virology, 2017).

Columns and labels:
LIMK1 = LIMK1 (Homo sapiens, UniProt P53667); assay: LIMK1 biochemical assay, 10-dose IC50; design: purified from insect cells; His; purchased Reaction Biology Corporation, Malvern, PA; host or cells: insect cells (coexpressed with ROCK1); settings: purified LIMK1; 10 μM ATP, 1 μM cofilin; ≥2 in vitro kinase assays; read-out: LIMK1 Biochemical Inhibition IC50
From the text: We selected R10015 from the potential LIMK inhibitors for further detailed mechanistic studies. The synthesis, purification, and biochemical characterization of R10015 are described in Materials and Methods below and shown in Fig. 3. We performed a cell-free assay to measure R10015 inhibition of the LIM domain kinase using purified human LIMK1 and its substrate, cofilin. […] We also performed profiling of R10015 against a panel of 62 kinases (Table 2).
Biochemical LIMK1 assays for all inhibitors were carried out by Reaction Biology Corporation, Malvern, PA, and followed the protocols described on its website. […] Reactions were carried out at 10 μM ATP, 1 μM substrate (cofilin), and 50 nM LIMK1 (final concentrations). […] The reagents were as follows: base reaction buffer, 20 mM HEPES (pH 7.5), 10 mM MgCl2, 1 mM EGTA, 0.02% Brij 35, 0.02 mg/ml bovine serum albumin (BSA), 0.1 mM Na3VO4, 2 mM dithiothreitol (DTT), 1% DMSO. No additional cofactors were added to the reaction mixture. The reaction procedures were as follows. (i) The indicated substrate was prepared in freshly made base reaction buffer. (ii) Any required cofactors were delivered to the substrate solution described above. (iii) The indicated kinase was delivered into the substrate solution and gently mixed. (iv) The compounds in DMSO were delivered into the kinase reaction mixture. (v) [^33P]ATP (final specific activity, 0.01 μCi/μl) was delivered into the reaction mixture to initiate the reaction. […] (viii) The filters were washed extensively in 0.1% phosphoric acid.

HIV-1(NL4-3) = format: cell-based; settings: for Infectivity (percentage of GFP+ cells): 100 μM, pretreated 1 h, HIV-1(NL4-3) 3 h, washed, viable cells only, paired DMSO controls 1.76-3.37%; for X4 HIV infection in screening: at nontoxic dosages, Fig. 1C and 2
in vitro = settings: human
[1] = oral gavage 20 mg/kg daily, 7 days

LIMK1, sequence (P53667 285-638): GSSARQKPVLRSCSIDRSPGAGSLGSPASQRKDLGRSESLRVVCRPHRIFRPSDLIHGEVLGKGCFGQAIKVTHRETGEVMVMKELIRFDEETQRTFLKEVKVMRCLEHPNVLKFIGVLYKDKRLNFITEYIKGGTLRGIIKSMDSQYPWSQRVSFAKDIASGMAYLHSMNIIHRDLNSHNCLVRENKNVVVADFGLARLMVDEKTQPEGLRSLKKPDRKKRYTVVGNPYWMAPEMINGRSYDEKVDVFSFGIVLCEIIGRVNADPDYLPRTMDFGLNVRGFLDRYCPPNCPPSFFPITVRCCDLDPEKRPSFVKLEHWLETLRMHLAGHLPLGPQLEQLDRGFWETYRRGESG

SMILES	IC50 (LIMK1) [nM]	Infectivity (percentage of GFP+ cells) (HIV-1(NL4-3); 48 h) [%]	X4 HIV infection in screening (HIV-1(NL4-3))	viability at 100 µM (in vitro) [%]	HIV-dependent GFP expression (GFP+ cells) (HIV-1(NL4-3); etravirine 100 nM, HIV(NL4-3), 48 h, Fig. 1B) [%]	body weight over a week compared to PBS control [1]
Cc1c[nH]c2ncnc(-c3ccc(-c4nc5ccc(C(=O)NC6CCCC6)cc5[nH]4)c(F)c3)c12 [Compound R8584]	50 ± 7	0.65	blocked	93.7		
Cc1cc(C#N)cc(C)c1Oc1nc(Nc2ccc(C#N)cc2)nc(N)c1Br [Etravirine, etravirine, reference compound]					0.01	
Cc1c[nH]c2ncnc(-c3ccc(NC(=O)N(CCO)c4ccccc4)cc3)c12 [Compound R7826]		1.02	blocked	96.2		gained weight
Cc1c[nH]c2ncnc(N3CCC(c4nc5cc(C#N)ccc5[nH]4)CC3)c12 [Compound R8212]	44 ± 6	2.22	blocked	93.3		
CC1(c2nc3ccc(C(=O)NC4CCC4)cc3[nH]2)CCN(c2ncnc3[nH]ccc23)CC1 [Compound R8482]	41 ± 4	1.10	blocked	93.4		
CCOC(=O)c1ccc2nc(N3CCN(c4ncnc5[nH]cc(Cl)c45)[C@@H](C)C3)[nH]c2c1 [Compound R10659]		1.30	blocked	89.8		
CC(C)NC(=O)c1ccc2[nH]c(N3CCN(c4ncnc5[nH]cc(Cl)c45)C[C@@H]3C)nc2c1 [Compound R10543]	5 ± 2	0.75	blocked	90.1		
